In patent publication US20240423933A1, “DRUGS FOR TREATING NEURODEVELOPMENTAL DISORDERS” (President and Fellows of Harvard College, priority 2021, published 2024):
Entries after “also recorded” stand apart in the source; their conditions may differ. Where a SMILES comes first, the peptide text is derived from it. [ ]: non-standard residue; d: D form. αMeP = C[C@@]1(C(=O)O)CCCN1

How the values were obtained:
[1] = tested on: MeCP2-knockdown (MeCP2-/Y) mice; assay: MeCP2 knockdown mouse study, treatment after onset of symptoms (oral vorinostat); assay type: in vivo; conditions: for survival after 3 weeks of treatment: MeCP2-knockdown animals; for colocalization of acetylated a-tubulin with neuronal staining in the colon: bIII- and acetylated alpha-tubulin staining; for colon vacuolization and neutrophil infiltrate (histology): colon sections of MeCP2-knockdown animals; for overall mobility scores (mobility, gait, hindlimb clasping) / diarrhea scores: relative to vehicle-treated MeCP2-knockdown animals; for overall mobility scores (mobility, gait, hindlimb clasping): FIG. 9B; for diarrhea scores: FIG. 9C
Experimental: Mice were treated with either trofinetide or vorinostat, and change in animal weight (g) and Cumulative Severity Score were assessed.
MeCP2-knockdown (MeCP2-/Y) mice were dosed approximately one week after the onset of symptoms with an oral formulation of vorinostat.
Additionally, the overall mobility scores (based on mobility, gait, and hindlimb clasping) and the diarrhea scores were improved for MeCP2-knockdown animals treated with vorinostat and trofinetide, relative to vehicle-treated MeCP2-knockdown animals (FIG. 9B and 9C, respectively). […] There was also an overall increase of hyperacetylated a-tubulin in bronchioles of MeCP2-Vy animals that vorinostat restored (FIG. 9E). Finally, vorinostat treatment rescued the disrupted a-tubulin acetylation observed in femoral muscle sections (FIG. 9F).
Initial histological analysis of the colon indicated a greater degree of vacuolization and heightened neutrophil infiltrate in MeCP2-knockdown animals, which vorinostat and trofinetide reversed. […] Vorinostat also normalized the ratio of acetylated alpha-tubulin to bIII-tubulin (FIG. 9G).

[2] = tested on: MeCP2 knockdown Xenopus laevis tadpoles; assay: Seizure Score in MeCP2 knockdown tadpoles; assay type: in vivo; conditions: MeCP2 knockdown tadpoles treated Day 1 to Day 6, relative to vehicle
Description: Seizure Score data for wild-type and MeCP2 knockdown was collected for Xenopus laevis tadpoles treated with drug (trofinetide or vorinostat) or vehicle from Day 1 to Day 6, after which they were placed back in medium.

[3] = tested on: MeCP2 knockdown Xenopus laevis tadpoles; assay: Tadpole viability in the MeCP2 knockdown model; assay type: in vivo; conditions: for animals survived until Day 10: MeCP2 knockdown tadpoles, no vehicle-treated animal survived beyond Day 6; for tadpole viability: MeCP2 knockdown model, FIGS. 6A-6B
Description: 100% of MeCP2 knockdown animals treated with vorinostat survived until Day 10; over 50% of MeCP2 knockdown animals treated with trofinetide survived until Day 10. Conversely, none of the MeCP2 knockdown animals treated with vehicle survived beyond Day 6.

[4] = tested on: MeCP2 knockdown Xenopus laevis tadpoles; assay: alpha-tubulin acetylation and cilia in tissues of MeCP2 knockdown tadpoles; assay type: in vivo
Experimental: Xenopus laevis tadpoles having an MeCP2 knockdown were generated using CRISPR-Cas9 technology. Xenopus embryos were fertilized and maintained at 14° C. until the 4-cell stage. Each cell was injected with ˜2 nL ribonucleoprotein (a mixture of sgRNAs targeting the MeCP2 gene and Cas9 enzyme). No adverse effects to development were observed, as all embryos developed to the swimming tadpole stages (Nieuwkoop-Faber stages 45-50) with no apparent loss of viability or morphological defect.
Specifically, tadpole tissues were assessed for alpha-tubulin acetylation and bidirectional shifts in acetylation patterns were observed depending on the tissue type.

[5] = tested on: MeCP2-knockdown (MeCP2−/Y) mice; assay: MeCP2 knockdown mouse study, daily i.p. treatment from p31; assay type: in vivo; conditions: vorinostat 50 mg/kg i.p. daily, relative to vehicle-treated MeCP2-knockdown mice
Experimental: Wild-type and MeCP2-knockdown (MeCP2^−/Y) mice (a Rett mouse model) were treated starting at day 31 post-partum (p31) via daily intraperitoneal (i.p.) administration of trofinetide (100 mg/kg) or vorinostat (50 mg/kg) until day 51 of age (FIG. 7A). Behavorial assays were performed at days 35-39 and days 49-53, before sacrificing the mice and harvesting organs at day 54.

[6] = tested on: MeCP2 knockdown Xenopus laevis; assay: Tongue thickness and GI tract ib4+ staining in MeCP2 knockdown tadpoles; assay type: in vivo
Description: Treatment with vorinostat in Xenopus laevis also had impacts on GI tract inflammation and nociceptive innervation. The role of MeCP2 knockdown in GI tract inflammation and nociceptive innervation by staining for isolectin B4-positive (ib4+) cells.

Naïve C57BL6 mice = assay: Elevated Plus Maze test; assay type: in vivo, mouse; conditions: FIGS. 11A-11B

Which results are given for `C[C@@]1(C(=O)N[C@@H](CCC(=O)O)C(=O)O)CCCN1C(=O)CN` [trofinetide, (2S)-2-[[(2S)-1-(2-aminoacetyl)-2-methylpyrrolidine-2-carbonyl]amino]pentanedioic acid] (H-Gly-[αMeP]-Glu-OH)?
survival after 3 weeks of treatment [1]: about 60%; colocalization of acetylated a-tubulin with neuronal staining in the colon [1]: normalized; colon vacuolization and neutrophil infiltrate (histology) [1]: reversed; overall mobility scores (mobility, gait, hindlimb clasping) [1]: improved; diarrhea scores [1]: improved; seizures (Seizure Score) [2]: reduced seizures; animals survived until Day 10 [3]: over 50%

With `O=C(CCCCCCC(=O)Nc1ccccc1)NO` [vorinostat, N′-hydroxy-N-phenyloctanediamide] as the molecule, how does the “hyperacetylated a-tubulin in bronchioles” value ([1]; FIG. 9E) read?
Its value is “restored”.

And the “a-tubulin acetylation in femoral muscle sections” value ([1]; FIG. 9F)?
The value was “rescued”.

What about the “survival after 3 weeks of treatment” value [1] of the same molecule?
The value was 100%.

And the “colocalization of acetylated a-tubulin with neuronal staining in the colon” value [1]?
The value was “normalized”.

What about the “colon vacuolization and neutrophil infiltrate (histology)” value [1] of the same molecule?
The value was “reversed”.

And the “ratio of acetylated alpha-tubulin to bIII-tubulin” value ([1]; colon, FIG. 9G)?
The value was “normalized”.

And the “breathing (score)” value ([1]; compared to trofinetide and vehicle treatments, FIG. 9D)?
The value was “significantly improved”.

And the “performance in EPM and Y mazes” value ([1]; oral vorinostat 50 mg/kg)?
The value was “increased performance”.

What about the weight gain ([1]; oral vorinostat 50 mg/kg) of the same molecule?
The weight gain was “ameliorated weight gain”.

What about the “Cumulative Severity Score / symptom severity score” value ([1]; oral vorinostat 50 mg/kg, mice treated at 35 days of age after onset of severe symptoms, FIG. 9A) of the same molecule?
Its value is “more effective than trofinetide; also recorded: prevented significant worsening”.

What about the “overall mobility scores (mobility, gait, hindlimb clasping)” value [1] of the same molecule?
Its value is “improved”.

What about the diarrhea scores [1] of the same molecule?
The diarrhea scores was “improved”.

And the “a-tubulin hyperacetylation in the GI tract” value ([4]; FIG. 2C)?
The value was “reversed that hyperacetylation”.

And the “hyper-acetylation in olfactory multi-ciliated cells” value ([4]; microtubules and alpha-tubulin)?
The value was “reverses hyper-acetylation”.

What about the “effects related to microtubules and cilia length” value ([4]; nostril multiciliated cells, FIGS. 2A-2B) of the same molecule?
The value was “reversed those effects”.

And the “neurological function (elevated plus maze and spatial novelty Y-maze performance)” value ([5]; FIG. 7D)?
Its value is “improved neurological function”.

What about the diarrhea score ([5]; FIG. 7E) of the same molecule?
Its diarrhea score is “improved diarrhea score”.

What about the tongue thickness ([6]; MeCP2 knockdown animals, FIG. 3A) of the same molecule?
The tongue thickness was “restored normal tongue thickness; also recorded: restores normal tongue vertical thickness”.

And the “ib4+ expression in the GI tract” value ([6]; MeCP2 knockdown tadpoles, isolectin B4 staining, FIG. 3B)?
Its value is “reversed that ib4+ expression; also recorded: restores normal ib4+ expression”.

What about the “seizures (Seizure Score)” value [2] of the same molecule?
Its value is “reduced seizures”.

And the tadpole viability [3]?
The tadpole viability was “improves Xenopus laevis tadpole viability”.

And the tadpole viability ([3]; listed as Vorinostat)?
The tadpole viability was “improve Xenopus laevis tadpole viability”.

What about the “animals survived until Day 10” value [3] of the same molecule?
The value was 100%.

What about the “behavior in anxiety, activity and novelty seeking” value (Naïve C57BL6 mice) of the same molecule?
The value was “restored behavior in anxiety, activity and novelty seeking; also recorded: restores naïve C57BL6 behavior”.
